We go through 38 molecules from the PolyMetriX glass transition set.

`*CCCCCCCCCCN1C(=O)c2ccc(C(c3ccc4c(c3)C(=O)N(*)C4=O)(C(F)(F)F)C(F)(F)F)cc2C1=O` (repeat unit) displayed a glass transition temperature of 123.00 °C.
The same measure for `*CCCCCCCCCN1C(=O)c2ccc(C(c3ccc4c(c3)C(=O)N(*)C4=O)(C(F)(F)F)C(F)(F)F)cc2C1=O` (repeat unit): 135.00 °C.
The result for `*CCCCCCCCN1C(=O)c2ccc(C(c3ccc4c(c3)C(=O)N(*)C4=O)(C(F)(F)F)C(F)(F)F)cc2C1=O` (repeat unit) reads 155.00 °C; that for `*CCCCCCCCc1nc2cc(-c3ccc4[nH]c(*)nc4c3)ccc2[nH]1` (repeat unit), 234.00 °C; that for `*CCCCCCN1C(=O)c2ccc(C(c3ccc4c(c3)C(=O)N(*)C4=O)(C(F)(F)F)C(F)(F)F)cc2C1=O` (repeat unit), 155.00 °C.
In the case of `*CCCCCN1C(=O)c2ccc(C(c3ccc4c(c3)C(=O)N(*)C4=O)(C(F)(F)F)C(F)(F)F)cc2C1=O` (repeat unit), the glass transition temperature stood at 180.00 °C.
The same measure for `*Oc1ccc(C(C)(C)c2ccc(Oc3ccc4c(=O)n5c6cc(-c7ccc8c(c7)nc7c9ccc(*)c%10cccc(c(=O)n87)c%109)ccc6nc5c5cccc3c45)cc2)cc1` (repeat unit): 380.00 °C; for `*Oc1ccc(C(C)(C)c2ccc(Oc3ccc4c(=O)n5c6cc(Oc7ccc8c(c7)nc7c9ccc(*)c%10cccc(c(=O)n87)c%109)ccc6nc5c5cccc3c45)cc2)cc1` (repeat unit): 334.00 °C; for `*Oc1ccc(C2(c3ccc(Oc4ccc(C(=O)c5cccc(C(=O)c6ccc(*)cc6)c5)cc4)cc3)CCC3CCCCC3C2)cc1` (repeat unit): 194.00 °C.
As to `*Oc1ccc(S(=O)(=O)c2ccc(Oc3ccc(C4(c5ccc(*)c(C)c5)CCCCC4)cc3C)cc2)cc1` (repeat unit), the glass transition temperature was determined as 197.00 °C.
The result for `*Oc1ccc(S(=O)c2ccc(Oc3ccc(C(C)(C)c4ccc(*)cc4)cc3)cc2)cc1` (repeat unit) reads 165.00 °C; that for `*Oc1ccc2cc(Oc3ccc(S(=O)(=O)c4ccc(*)cc4)cc3)ccc2c1` (repeat unit), 231.00 °C.
The result for `*Oc1cccc(Oc2ccc(S(=O)(=O)c3ccc(*)cc3)cc2)c1` (repeat unit) reads 177.00 °C.
The result for `*Oc1ccccc1Oc1ccc(S(=O)(=O)c2ccc(*)cc2)cc1` (repeat unit) reads 171.00 °C; that for `*Sc1ccc(P(=O)(c2ccccc2)c2ccc(Sc3ccc(-c4ccc(*)cc4)cc3)cc2)cc1` (repeat unit), 232.00 °C; that for `*c1ccc(*)c(C(=O)c2ccc(C)cc2)c1` (repeat unit), 202.00 °C.
For `*c1ccc(*)c(C(=O)c2ccc(F)cc2)c1` (repeat unit), the glass transition temperature worked out at 194.00 °C.
The result for `*c1ccc(N(c2ccc(C#N)cc2)c2ccc(N3C(=O)c4ccc(Oc5ccc(C(C)(C)c6ccc(Oc7ccc8c(c7)C(=O)N(*)C8=O)cc6)cc5)cc4C3=O)cc2)cc1` (repeat unit) reads 230.00 °C.
The result for `*c1ccc(Oc2ccc(-c3ccc(Oc4ccc(N5C(=O)c6ccc(Oc7ccc(C(C)(C)c8ccc(Oc9ccc%10c(c9)C(=O)N(*)C%10=O)cc8)cc7)cc6C5=O)cc4)cc3)cc2)cc1` (repeat unit) reads 220.00 °C.
The same measure for `*c1ccc(Oc2ccc(C(=O)c3cccc(C(=O)c4ccc(Oc5ccc(-c6nc7ccccc7n6-c6ccc(-n7c(*)nc8ccccc87)cc6)cc5)cc4)c3)cc2)cc1` (repeat unit): 219.00 °C.
`*c1ccc(Oc2ccc(C(=O)c3cccc(C(=O)c4ccc(Oc5ccc(-n6c(=O)c7cc8c(=O)n(*)c(=O)c8cc7c6=O)cc5C(F)(F)F)cc4)n3)cc2)c(C(F)(F)F)c1` (repeat unit) had a glass transition temperature of 227.10 °C.
The same measure for `*c1ccc(Oc2ccc(C3(c4ccc(Oc5ccc(N6C(=O)c7ccc(Oc8ccc(C9(c%10ccc(Oc%11ccc%12c(c%11)C(=O)N(*)C%12=O)cc%10)CCC(C(C)(C)C)CC9)cc8)cc7C6=O)cc5)cc4)CC4CC3C3CCCC43)cc2)cc1` (repeat unit): 257.00 °C; for `*c1ccc(Oc2ccc(Sc3ccc(Oc4ccc(-c5ccc(*)s5)cc4C(F)(F)F)cc3)cc2)c(C(F)(F)F)c1` (repeat unit): 142.00 °C.
The same measure for `*c1ccc(Oc2ccc(Sc3ccc(Oc4ccc(-c5cccc(*)n5)cc4C(F)(F)F)cc3)cc2)c(C(F)(F)F)c1` (repeat unit): 144.50 °C.
The same measure for `*c1ccc(Oc2ccc3ccc(Oc4ccc(-n5c(=O)c6cc7c(=O)n(*)c(=O)c7cc6c5=O)cc4)cc3c2)cc1` (repeat unit): 320.80 °C.
In the case of `*c1ccc(Oc2cccc(Oc3ccc(N4C(=O)c5ccc(Oc6ccc(C(C)(C)c7ccc(Oc8ccc9c(c8)C(=O)N(*)C9=O)cc7)cc6)cc5C4=O)cc3)c2)cc1` (repeat unit), the glass transition temperature was found to be 246.00 °C.
The same measure for `*c1ccc(S(=O)(=O)c2ccc(-n3c(=O)c4cc5c(=O)n(*)c(=O)c5cc4c3=O)cc2)cc1` (repeat unit): 350.00 °C; for `*c1ccc(S(=O)(=O)c2ccc(-n3nc(-c4ccccc4)c4cc(Oc5ccc(C(C)(C)c6ccc(Oc7ccc8c(-c9ccccc9)nn(*)c(=O)c8c7)cc6)cc5)ccc4c3=O)cc2)cc1` (repeat unit): 210.50 °C; for `*c1ccc(S(=O)(=O)c2ccc(-n3nc(-c4ccccc4)c4ccc(S(=O)(=O)c5ccc6c(-c7ccccc7)nn(*)c(=O)c6c5)cc4c3=O)cc2)cc1` (repeat unit): 422.00 °C.
The same measure for `*c1ccc(Sc2ccc(-n3c(=O)c4cc5c(=O)n(*)c(=O)c5cc4c3=O)cc2)cc1` (repeat unit): 400.00 °C; for `*c1ccc(Sc2ccc(Oc3ccc(Sc4ccc(N5C(=O)c6ccc(Oc7ccc(C(C)(C)c8ccc(Oc9ccc%10c(c9)C(=O)N(*)C%10=O)cc8)cc7)cc6C5=O)cc4)cc3)cc2)cc1` (repeat unit): 199.00 °C.
Turning to `*c1ccc(Sc2ccc(Sc3ccc(Sc4ccc(-n5c(=O)c6cc7c(=O)n(*)c(=O)c7cc6c5=O)cc4)cc3)cc2)cc1` (repeat unit), the glass transition temperature was 234.1 °C.
The result for `*c1ccc(Sc2ccc(Sc3ccc(Sc4ccc(S(*)(=O)=O)cc4S(=O)(=O)O)cc3)cc2)c(S(=O)(=O)O)c1` (repeat unit) reads 202.00 °C; that for `*c1ccc(Sc2ccc(Sc3ccc(Sc4ccc(S(*)=O)cc4)cc3)cc2)cc1` (repeat unit), 133.00 °C; that for `*c1ccc([Si](*)(C)C)s1` (repeat unit), 21.00 °C.
The same measure for `*c1ccc2c(c1)C(=O)N(C1CCC(CC3CCC(N4C(=O)c5ccc(C(*)(C(F)(F)F)C(F)(F)F)cc5C4=O)CC3)CC1)C2=O` (repeat unit): 265.00 °C; for `*c1ccc2oc3ccc(S(=O)(=O)c4ccc(Oc5ccc(S(*)(=O)=O)cc5)cc4)cc3c2c1` (repeat unit): 290.00 °C.
The same measure for `*c1cccc(N2C(=O)c3cccc(Oc4ccc(C(C)(C)c5ccc(Oc6cccc7c6C(=O)N(*)C7=O)cc5)cc4)c3C2=O)c1` (repeat unit): 227.50 °C.
